From US6140368A, “Naphthols useful in antiviral methods” (The Regents of the University of California, priority 1998, dated 2000)
Where “and” joins values, the source holds several entries; their conditions need not be identical. Identical values can stand only once. Counter-ions that a name gives are not always drawn. Like-named read-outs stand apart in the source and are kept apart here.

Experiments:
[1] = target: HIV reverse transcriptase (Human immunodeficiency virus type 1 group M subtype B, UniProt P03366); assay: Reverse transcriptase scintillation proximity assay (Example 4, Table 2); format: biochemical; conditions: for IC50: read-out: IC50 (RT activity); for remaining activity at 10 µM: 0.05 h, 10 μM inhibitor, relative to dimethyl sulfoxide = 100%, read-out: % RT activity remaining at 10 μM
How it was run: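 Purified RT with biotinylated 17mer/50mer RNA-DNA template-primer (39 nm), pH 8.0 Tris with 10 mM MgCl2, 60 mM KCl, dNTPs plus tritiated dTTP; inhibitor preincubated 10 min at 37 °C before enzyme, reaction 3 min. Incorporation read by streptavidin SPA counting.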

[2] = target: T1, HIV integrase (Human immunodeficiency virus type 1 group M subtype B, UniProt P04585); assay: biochemical; conditions: read-out: Inhibition of 3' processing activity (IC50)
[3] = target: T1, HIV integrase; assay: biochemical; conditions: read-out: Inhibition of strand transfer (IC50)
[4] = target: T2, WT reverse transcriptase (Human immunodeficiency virus type 1 BH10, UniProt P03366); assay: Reverse transcriptase mutant assay, WT; format: biochemical, HIV-1
T2 construct: mature chain of Gag-Pol polyprotein
Method: (§1) The mutants were constructed using BspMI cassette mutagenesis as described previously by Boyer et al. (J Virol., 66:1031-1039 and 7533-7537 (1992)), which is hereby incorporated by reference. The RT assay has also been previously described by Boyer et al. (PNAS USA, 91:4882-4886 (1994)), which is also incorporated by reference. Briefly, RNA dependent DNA polymerase activity is assayed using purified RT protein and a poly(rC).olio(dG) template-primer as the substrate. The protein (1 μg) and substrate are assayed in a total reaction volume of 100 μl containing 0.01 unites poly(rC).olio(dG), 0.02 mM dGTP, 0.002 mCi [α-^32 P]dGTP, and a buffer containing 25 mM tris (pH 8.0), 75 mM KCL, 8.0 mM MgCl2, 2.0 mM dithiothreitol, and 10 mM 3-[(3-cholamidopropyl) diethylammoniol]-1-propane-sulfonate containing acetylated bovine serum albumin at 100 μg/ml. The assay mixture is incubated for 30 minutes, and then stopped by the addition of 50 μl of a 10 mg/ml solution of sheared and denatured salmon sperm DNA followed by 3.0 ml 10 percent trichloroacetic acid. The labeled polymer is collected by suction filtration on Whatman glass GF/C and counted.

[5] = target: T3, L100I mutant reverse transcriptase (Human immunodeficiency virus type 1 BH10, UniProt P03366, L699I); assay: biochemical
T3 construct: mature RT cut from Gag-Pol polyprotein

[6] = target: T4, K103N mutant reverse transcriptase (Human immunodeficiency virus type 1 BH10, UniProt P03366, K702N); assay: biochemical
T4 construct: mature RT cut from Gag-Pol polyprotein

[7] = target: T5, V106A mutant reverse transcriptase (Human immunodeficiency virus type 1 BH10, UniProt P03366, V705A); assay: biochemical; format: biochemical
T5 construct: mature chain of Gag-Pol polyprotein

[8] = target: T6, Y181I mutant reverse transcriptase (Human immunodeficiency virus type 1 BH10, UniProt P03366, Y780I); assay: biochemical
T6 construct: mature chain of Gag-Pol polyprotein

[9] = target: T7, E138K mutant reverse transcriptase (Human immunodeficiency virus type 1 BH10, UniProt P03366, E737K); assay: biochemical
T7 construct: mature RT cut from Gag-Pol polyprotein

[10] = target: L74V mutant reverse transcriptase (Human immunodeficiency virus type 1 BH10, UniProt P03366, L673V); assay: Reverse transcriptase mutant assay, L74V; format: biochemical, HIV-1
[11] = target: AZT-21 (M41L/D67N/K70R/T215Y/K219Q) mutant reverse transcriptase (Human immunodeficiency virus type 1 BH10, UniProt P03366, D666N/K669R/K818Q/M640L/T814Y); assay: Reverse transcriptase mutant assay, AZT-21; format: biochemical, HIV-1; conditions: for % Activity Remaining: AZT-21 {M41L/D67N/K70R/T215Y/K219Q}
[12] = test system: mutant strains of HIV reverse transcriptase; assay: Reverse transcriptase mutant assays, mutants overall; format: biochemical
Method: as §1

[13] = test system: HIV; assay: Cell-based anti-HIV (XTT) assay (National Institutes of Health); conditions: run by the National Institutes of Health
Description: The anti-viral evaluations branch of the National Institutes of Health also ran cell-based anti-HIV (XTT) assays and reverse transcriptase (RT) assays on a number of the novel compounds. […] These were: 31, 32, 35, 36, 53, 54, 57, 58, 91, 99, and 103.

[14] = test system: HIV; conditions: cited from earlier work
[15] = test system: 293T cells; assay: Toxicity to 293T cells by growth curves and trypan blue exclusion; conditions: concentrations greater than ten times IC50 against HIV RT

Row | SMILES | IC50 [1] | IC50 [2] [nM] | IC50 [3] [nM] | conclusion of cell-based anti-HIV (XTT) assays and reverse transcriptase (RT) assays [13] | other results
1 | O=C(Nc1ccc2c(O)cc(S(=O)(=O)O)cc2c1)Nc1ccc2c(O)cc(S(=O)(=O)O)cc2c1 [Compound 1, carbonyl-J] | ~5000 nM and 5000 nM | 2500 | 2500 |  | remaining activity at 10 µM ([4]; 10 μM): 29%; remaining activity at 50 µM ([4]; 50 μM): 3%; remaining activity at 10 µM ([5]; 10 μM): 11%; remaining activity at 50 µM ([5]; 50 μM): 1%; remaining activity at 10 µM ([6]; 10 μM): 32%; remaining activity at 50 µM ([6]; 50 μM): 3%; % Activity Remaining ([7]; 10 μM): 33%; remaining activity at 50 µM ([7]; 50 μM): 4%; remaining activity at 10 µM ([8]; 10 μM): 18%; remaining activity at 50 µM ([8]; 50 μM): 1%; remaining activity at 10 µM ([9]; 10 μM): 29%; remaining activity at 50 µM ([9]; 50 μM): 4%; % Activity Remaining ([10]; 10 μM): 34%; % Activity Remaining ([10]; 50 μM): 6%; % Activity Remaining ([11]; 10 μM): 33%; % Activity Remaining ([11]; 50 μM): 4%; difference in inhibition with respect to the wild type enzyme ([11]; mutant M41L/D67N/K70R/T215Y/K219Q): virtually no difference in inhibition was found with respect to the wild type enzyme; activity against mutant reverse transcriptases [12]: displays activity against non-nucleoside mutants as well as other mutants
2 | O=C(Nc1ccc2c(O)c(N=Nc3cccc(C(=O)O)c3)c(S(=O)(=O)O)cc2c1)Nc1ccc2c(O)c(N=Nc3cccc(C(=O)O)c3)c(S(=O)(=O)O)cc2c1 [Compound 58] | 800 nM | 200 | 600 | active or moderately active | 
3 | COc1ccccc1N=Nc1c(S(=O)(=O)[O-])cc2cc(NC(=O)Nc3ccc4c(O)c(N=Nc5ccc(S(=O)(=O)[O-])cc5C)c(S(=O)(=O)[O-])cc4c3)ccc2c1O.[Na+].[Na+].[Na+] [direct fast scarlet 4BSW] |  |  |  |  | activity in AIDS antiviral screens [14]: confirmed active
4 | Cc1cc(C(=O)O)ccc1N=Nc1c(S(=O)(=O)O)cc2cc(NC(=O)Nc3ccc4c(O)c(N=Nc5ccc(C(=O)O)cc5C)c(S(=O)(=O)O)cc4c3)ccc2c1O [Compound 53] | 600 nM | 500 | 2000 | active or moderately active | 
5 | O=C(Nc1ccc2c(O)c(N=Nc3cc(C(=O)O)ccc3C(=O)O)c(S(=O)(=O)O)cc2c1)Nc1ccc2c(O)c(N=Nc3cc(C(=O)O)ccc3C(=O)O)c(S(=O)(=O)O)cc2c1 [Compound 35] | 500 nM | 800 | 2000 | active or moderately active | 
6 | Cc1ccccc1N=Nc1c(S(=O)(=O)[O-])cc2cc(NC(=O)Nc3ccc4c(O)c(N=Nc5ccc6cc(S(=O)(=O)[O-])ccc6c5)c(S(=O)(=O)[O-])cc4c3)ccc2c1O.[Na+].[Na+].[Na+] [brilliant paper scarlet G] |  |  |  |  | activity in AIDS antiviral screens [14]: confirmed active
7 | CCOc1cc(N=Nc2cc(Cl)c(S(=O)(=O)O)cc2Cl)c2cc(S(=O)(=O)O)ccc2c1N=Nc1c(S(=O)(=O)O)cc2cc(NC(=O)c3ccc(N)cc3)ccc2c1O [calcomine scarlet 4BNC, 2-naphthalenesulfonic acid, 7-[(4-aminobenzoyyl)amino]-3-[[4-[(2,5-dichloro-4-sulfophenyl)azo]-2-ethoxy-6-sulfo-1-naphthalenyl]azo]-4-hydroxy-,trisodium salt (9CI)] |  |  |  |  | activity in AIDS antiviral screens [14]: confirmed active
8 | O=C(O)Cc1ccc(N=Nc2c(S(=O)(=O)O)cc3cc(NC(=O)Nc4ccc5c(O)c(N=Nc6ccc(CC(=O)O)cc6)c(S(=O)(=O)O)cc5c4)ccc3c2O)cc1 [Compound 32] | 500 nM | 2000 | 700 | active or moderately active | 
9 | COc1cc(C(=O)O)ccc1N=Nc1c(S(=O)(=O)O)cc2cc(NC(=O)Nc3ccc4c(O)c(N=Nc5ccc(C(=O)O)cc5OC)c(S(=O)(=O)O)cc4c3)ccc2c1O [Compound 54] |  | 4000 | 2000 | active or moderately active | remaining activity at 10 µM [1]: 0.6%
10 | O=C(O)/C=C/c1ccc(N=Nc2c(S(=O)(=O)O)cc3cc(NC(=O)Nc4ccc5c(O)c(N=Nc6ccc(/C=C/C(=O)O)cc6)c(S(=O)(=O)O)cc5c4)ccc3c2O)cc1 [Compound 5] | 200 nM | 900 | 1000 | confirmed active | toxicity to cells [15]: not toxic even at concentrations greater than ten times its IC50
11 | O=C(O)CCC(NC(=O)c1ccc(N=Nc2c(S(=O)(=O)O)cc3cc(NC(=O)Nc4ccc5c(O)c(N=Nc6ccc(C(=O)NC(CCC(=O)O)C(=O)O)cc6)c(S(=O)(=O)O)cc5c4)ccc3c2O)cc1)C(=O)O (stereo not drawn) [Compound 57] |  | 600 | 900 | active or moderately active | remaining activity at 10 µM [1]: 0.6%
12 | O=C(O)CCCc1ccc(N=Nc2c(S(=O)(=O)O)cc3cc(NC(=O)Nc4ccc5c(O)c(N=Nc6ccc(CCCC(=O)O)cc6)c(S(=O)(=O)O)cc5c4)ccc3c2O)cc1 [Compound 36] | 500 nM | 800 | 1000 | active or moderately active | 
